Assays:
[1] = tested on: Candida albicans ATCC®10231™; assay: MIC determination, broth microdilution, GOX+LPO with potentiator candidate; assay type: cell-based; settings: C. albicans; enhancer 0.01%
Method: The minimum inhibitory concentration (MIC) is defined as the lowest concentration of an antimicrobial agent that results in a complete inhibition of microbial growth (determined via visual evaluation or absorbance measurements) after overnight incubation. This endpoint measurement is used to define the microbial susceptibility towards an antimicrobial agent. Here, the antimicrobial agent is a combination of the natural enzymes GOX+LPO.
To determine the MIC of the described combinations, a classical broth microdilution assay was used to determine the susceptibility of a series of microbes commonly detected in infected wounds, including (a) the Gram-positive bacterium Staphylococcus aureus ATCC® 6538™ (results shown below), (b) the Gram-negative bacterium Pseudomonas aeruginosa ATCC®9027™ (results shown below), (c) the yeast Candida albicans ATCC®10231™ (results shown below), and (d) the fungus Aspergillus niger ATCC®16404™ (results shown below). In brief, a […] serial dilution of the enzymatic GOX+LPO solution was prepared in a transparent, flat-bottomed 96-well test plate with final concentrations ranging from 0.005 to 0.00000977% (v/v). To each well, a fixed volume of the enzymatic substrate containing 3,3% (w/v) glucose and 0,084% (w/v) potassium iodide, as well as the microbial inoculum with an OD600 of 0.1 was added. In the event the enzyme combination was evaluated in the presence of a potentiator candidate, the latter was added together with the enzymatic substrate in a final concentration ranging from 100 to 0,00125% (v/v). For each combination evaluated, a blank (no addition of microbial inoculum) was included. Positive (inoculum only) and negative (background solution only) were included to evaluate the performance of the test and to select the enzymatic GOX+LPO concentration at which no microbial growth is detected (i.e., absorbance equal to that of the background solution only). Then, the 96-well test plate was incubated for 24 hours at 37° C. (S. aureus, P. aeruginosa and C. albicans) or 25° C. (A. niger). After incubation, the absorbance of each well was measured using a plate spectrophotometer (Spectramax ID3, Molecular Devices). For each combination evaluated, this test was repeated at least 5 times. The collected data were further analyzed in MS Excel. Mean absorbance data were visualized in a table format in which the MIC was highlighted.

S. aureus (ATCC®6538™) = assay: Microbial challenge testing in alginogel with GOX+EPO; assay type: cell-based; settings: isoleucine 0.0025% (w/w)
Method: In a further experiment, the efficacy of antimicrobial activity enhancement by isoleucine of the GOX combination with eosinophil peroxidase (EPO) was evaluated. In view hereof, a test was set up as described in the section on ‘challenge testing’ described above with the difference that EPO was used instead of LPO.
In brief, microbial challenge testing was performed according to the method described in the European Pharmacopoeia current version chapter 5.1.3 ‘Efficacy of antimicrobial preservation’, but with adapted time points (0, 10, 20, 30, 40, 50, 60, 70 and 80 min instead of 0, 2, 7, 14 and 28 days). […] After preparation, a homogenous sample of 10 g was transferred into a 50 ml conical tube for each alginogel to be evaluated. […] Then, the 50 ml conical tubes containing the alginogel samples to be evaluated were inoculated with 100 μl of the designated inoculum and incubated at 25° C. for 80 minutes. At the start (time point 0) and after 0, 10, 20, 30, 40, 50, 60, 70 and 80 min, the number of viable microorganisms per gram product (expressed as CFU/g) was determined by transferring a sample of 0.5 g of the product into a 15 ml conical tube containing 4.5 ml of sterile diluent and applying general dilution and plate count techniques. For each combination evaluated, the absolute counts (expressed as log(CFU/g)) at each timepoint were visualized in a graph. […]

GOX = GOX (Aspergillus niger, UniProt P13006); assay: Glucose oxidase (GOX) activity, spectrophotometric assay; assay type: biochemical; settings: reference = no potentiator candidate
Chain of GOX (P13006 17-605): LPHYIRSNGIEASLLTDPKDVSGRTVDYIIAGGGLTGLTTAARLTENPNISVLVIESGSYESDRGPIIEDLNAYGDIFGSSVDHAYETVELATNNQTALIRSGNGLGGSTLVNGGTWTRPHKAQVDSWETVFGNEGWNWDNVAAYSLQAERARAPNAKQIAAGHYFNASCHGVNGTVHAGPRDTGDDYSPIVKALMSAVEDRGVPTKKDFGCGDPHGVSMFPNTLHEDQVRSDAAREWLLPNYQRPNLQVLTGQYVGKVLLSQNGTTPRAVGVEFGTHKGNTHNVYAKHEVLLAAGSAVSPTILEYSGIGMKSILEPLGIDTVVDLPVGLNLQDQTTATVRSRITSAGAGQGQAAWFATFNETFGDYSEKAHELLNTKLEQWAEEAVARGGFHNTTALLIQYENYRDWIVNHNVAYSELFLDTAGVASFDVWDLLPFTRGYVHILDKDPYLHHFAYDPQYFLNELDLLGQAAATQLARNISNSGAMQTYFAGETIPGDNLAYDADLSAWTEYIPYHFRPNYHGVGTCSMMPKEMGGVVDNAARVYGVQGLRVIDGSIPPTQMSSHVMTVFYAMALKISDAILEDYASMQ
Method: The natural enzyme GOX is an oxidoreductase that catalyses the oxidation of glucose to gluconic acid and hydrogen peroxide (H2O2) in the presence of water and air. To measure the enzymatic activity of GOX, a standard spectrophotometric assay is performed. In brief, a second oxidoreductase enzyme, peroxidase, and a chromogenic oxygen acceptor, o-dianisidine, are added to the former reaction mix (GOX+glucose+water+air) so that the formation of a coloured compound is achieved that can in turn be measured by spectrophotometry. GOX was tested in 4 different concentrations, i.e., 100, 50, 10 and 1 mg/ml. Each reaction mixture was tested in duplo. In the event GOX activity was evaluated in the presence of a potentiator candidate (=a molecule that might be able to augment the enzymatic activity of GOX), the latter was added in a low and high concentration ranging from 100 to 0.1 mg/ml. The blank consisted of the reaction mix in which the enzymes were absent. After mixing all reaction elements, absorbance was immediately measured with a plate reader (Spectramax ID3, Molecular Devices) every minute for 5 minutes at 35° C. For each combination evaluated, this test was repeated at least 2 times. Results were further analysed in MS Excel and expressed as U/g. Mean blank-corrected data±SD were plotted. Statistical significance compared to the combination without potentiator candidate (reference) was calculated using students' t-tests. Significance is achieved when the obtained p-value is lower than 0,05. Significance levels were defined as p<0.05=*; p<0.01=** and p<0.001=***.

MIC: GOX+LPO enzyme solution needed to completely inhibit growth [1]	increase in MIC compared to reference [1] [×]	increase in MIC compared to the enhancing molecule guaiacol [1] [×]	SMILES	time to complete reduction of absolute S. aureus counts (S. aureus (ATCC®6538™)) [min]	GOX activity compared to reference (GOX; enhancer 0.1 mg/ml)	GOX activity compared to reference (GOX; enhancer 100 mg/ml)
0.0000391 % (v/v)	4	2	CC[C@H](C)[C@H](N)C(=O)O [Isoleucine, isoleucine]	80		
			O=C(O)[C@@H]1CCCN1 [Proline, proline]		significant increase	significant increase

Source: US20260273028A1, “PEROXIDASE COMPOSITIONS CONTAINING IMPROVED ENHANCING AGENTS” (FLEN HEALTH PHARMA NV, priority 2022, published 2026)
